# From patent publication US9463213B2, “Use of degarelix in the treatment of endometriosis and related diseases” (priority 2012, dated 2016)
# Columns and labels:
# [1] = tested on: women with recurrent endometriosis after surgery; assay: Example 1: clinical comparison of single-dose degarelix with monthly leuprolide acetate in recurrent endometriosis; type: in vivo; conditions: for Disappearance of pain: degarelix acetate 80 mg single s.c. injection vs leuprolide acetate 3.75 mg s.c. monthly, 15 patients per group; for Disappearance of symptoms at the end of treatment / Recurrence six months after the end of treatment / CA-125 after 2 months / CA-125 at the end of treatment: degarelix acetate 80 mg single s.c. vs leuprolide acetate 3.75 mg s.c. monthly; for CA-125 after 2 months / CA-125 at the end of treatment: plasma
# Procedure: In this experiment the use of degarelix was studied, administered in a dose of 80 mg in a single infusion, with an effect which lasted for at least 4 months (period of amenorrhea and hypoestrogenism), comparing this with the effect of treatment with leuprolide acetate GnRH-agonist administered in a dose of 3.75 mg per month for at least 6 months in women with recurrent endometriosis after surgery and post-surgery treatment with estro-progestins. 30 women divided into two groups of 15 patients each, with recurrent endometriosis after previous surgery for endometriotic cysts, in whom new ovarian cysts, pelvic pain and a rise in plasma CA125 values occurred, were included in the study. One group of patients was treated with 80 mg degarelix acetate in a single subcutaneous injection (Firmagon 80 mg, company Ferring) on the first day of the menstrual cycle, while the other group was treated with leuprolide acetate (Enantone 3.75, Takeda) in a dose of 3.75 mg subcutaneously every month for four months. Both the groups were monitored for FSH, LH, estradiol, androstenedione, dehydroandrostenedione (DEA) and CA125, with plasma doses every fifteen days starting from the day following administration of the drug. Pelvic pain levels experienced by the patients during treatment and during the six months following suspension of the treatment were also evaluated using a “Visual Analogue Scale” (VAS) in which the patient expressed the level of pain experienced on a 10 cm scale.
# [2] = tested on: patients with severe endometriosis; conditions: 80 mg monthly for three months; cited from earlier work
# [3] = tested on: patients suffering from endometriosis with bilateral ovarian cysts; assay: Example 2: degarelix before assisted reproduction in patients with bilateral endometriotic ovarian cysts; type: in vivo
# Procedure: In this experiment, 12 patients suffering from endometriosis with the presence of bilateral ovarian cysts who wished to receive a cycle of assisted reproduction underwent, prior to undergoing controlled ovarian hyperstimulation, treatment with 80 mg degarelix acetate in a single administration 4 months before the assisted reproduction cycle, in order to evaluate the efficacy of this treatment on the reduction and/or disappearance of the ovarian cysts without performing surgery. 12 patients with bilateral endometriotic cysts (cysts larger than 3 cm) and high plasma CA125 (over 60 IU/ml) were selected. 80 mg degarelix acetate (Firmagon 80 mg) was injected into the patients on the first day of the cycle and the patients were then monitored for FSH, LH and estradiol values every 20 days, with an echography check to evaluate the dimensions of the cysts.
# healthy women volunteers = conditions: injection of 2.5 mg; cited from earlier work
# [4] = 80 mg single dose vs leuprolide acetate, P<0.01
compound,measurement,setting,value
"CCNC(=O)[C@@H]1CCCN1C(=O)[C@H](CCCNC(=N)N)NC(=O)[C@H](CC(C)C)NC(=O)[C@@H](CC(C)C)NC(=O)[C@H](Cc1ccc(O)cc1)NC(=O)[C@H](CO)NC(=O)[C@H](Cc1c[nH]c2ccccc12)NC(=O)[C@H](Cc1c[nH]cn1)NC(=O)[C@@H]1CCC(=O)N1 [Leuprolide acetate, leuprolide acetate]",Disappearance of pain,[1],3.8 ± 0.8
same,Disappearance of symptoms at the end of treatment,[1],60.0%
same,Recurrence six months after the end of treatment,[1],33.3%
same,CA-125 after 2 months,[1],52.6 ± 31.5
same,CA-125 at the end of treatment,[1],34.0 ± 12.7
degarelix acetate,Effect on pain and endometriosis recurrence,[2],reduction of pain and endometriosis recurrence
same,Volume of the endometriotic cysts,"[3]; 80 mg single administration, 3 months after treatment, echography",decreased significantly
same,"Levels of FSH, LH and estradiol 3 months after treatment (FIG. 6)","[3]; 80 mg single administration, 12 patients",low levels
same,Patients with complete disappearance of endometriotic cysts,"[3]; 80 mg single administration, of 12 patients",at least 4 patients
same,Pregnancy achieved,"[3]; after 80 mg single administration and assisted reproduction cycle, of 12 patients",5 cases
same,Recurrence of endometriotic cysts during ovarian stimulation with oocyte sampling,"[3]; after 80 mg single administration, all patients",without showing any recurrence of endometriotic cysts
same,Effect on LH and FSH release,healthy women volunteers,immediate suppression of LH and FSH release
same,Time required for LH and FSH to return to base levels,healthy women volunteers,approximately 7 days
same,Duration of effect (period of amenorrhea and hypoestrogenism),[1]; 80 mg in a single infusion,at least 4 months
same,Control of painful symptoms (VAS) compared with GnRH agonist (FIG. 5),[1]; 80 mg single dose vs leuprolide acetate,better control of painful symptoms
same,Estradiol and androgen levels compared with GnRH agonist (FIGS. 2-4),[1]; [4],lower levels of estradiol
same,Suppression of LH and FSH compared with GnRH agonist (FIG. 1),[1]; [4],More rapid and stable suppression of LH and FSH
same,Disappearance of pain,[1],1.4 ± 0.3
same,Disappearance of symptoms at the end of treatment,[1],93.3%
same,Recurrence six months after the end of treatment,[1],6.6%
same,CA-125 after 2 months,[1],32.4 ± 21.4
same,CA-125 at the end of treatment,[1],12.6 ± 10.1
same,"Duration of stable suppression of FSH, LH, estradiol and androgen levels",[1]; single administration of 80 mg,4 months
